Key:
Assay in all cases: KinomeScan
Assay type in all cases: binding
Settings in all cases: read-out: % Ctrl @ 10000 nM
ADCK4 = target: T1, ADCK4 (Homo sapiens, UniProt Q96D53)
T1 construct: host or cells: E. coli (BL21-derived), T7 phage lysate
Experimental: (§1) Kinase assays: Assays were performed as described in Fabian et al. (2005) Nature Biotechnology, vol. 23, p. 329. Kinase-tagged T7 phage strains were grown in parallel in 24 or 96-well blocks in an E. coli host derived from the BL21 strain. E. coli were grown to log-phase and infected with T7 phage from a frozen stock (multiplicity of infection ˜0.1) and incubated with shaking at 32° C. until lysis (−90 minutes). The lysates were centrifuged and filtered to remove cell debris. […] The liganded beads were blocked with excess biotin and washed with blocking buffer (SeaBlock (Pierce), 1% BSA, 0.05% Tween 20, 1 mM DTT) to remove unbound ligand and to reduce non-specific phage binding.
(§2) Test compounds were prepared as 40× stocks in DMSO and diluted into the aqueous environment. 2.5% DMSO was added to control assays lacking a test compound. All reactions were performed in polystyrene 96-well plates that had been pretreated with blocking buffer in a final volume of 0.04 ml. […] The phage titer in the eluates was measured by quantitative PCR.

AMPK-alpha2 = target: T2, AMPK-alpha2 (Homo sapiens, UniProt P54646)
T2 construct: host or cells: E. coli (BL21-derived), T7 phage lysate
Experimental: as §1, §2

ARK5 = target: T3, ARK5 (Homo sapiens, UniProt O60285)
T3 construct: host or cells: E. coli host derived from BL21
Experimental: as §1, §2

ASK1 = target: T4, ASK1 (Homo sapiens, UniProt Q99683)
T4 construct: host or cells: E. coli host derived from BL21
Experimental: as §1, §2

BRSK1 = target: T5, BRSK1 (Homo sapiens, UniProt Q8TDC3)
T5 construct: host or cells: E. coli host derived from BL21
Experimental: as §1, §2

CAMK2D = target: T6, CAMK2D (Homo sapiens, UniProt Q13557)
T6 construct: host or cells: E. coli host derived from BL21
Experimental: as §1, §2

CDC2L1 = target: T7, CDC2L1 (Homo sapiens, UniProt P21127)
T7 construct: host or cells: T7 phage in E. coli host derived from BL21
Experimental: as §1, §2

CDK11 = target: T8, CDK11 (Homo sapiens, UniProt Q9BWU1)
T8 construct: host or cells: T7 phage in E. coli host derived from BL21
Experimental: as §1, §2

CLK1 = target: T9, CLK1 (Homo sapiens, UniProt P49759)
T9 construct: host or cells: T7 phage in E. coli host derived from BL21
Experimental: as §1, §2

CSNK1G1 = target: T10, CSNK1G1 (Homo sapiens, UniProt Q9HCP0)
T10 construct: purchased Ambit Biosciences Corp (KinomeScan); host or cells: T7 phage in E. coli host derived from BL21
Experimental: as §1, §2

DAPK3 = target: T11, DAPK3 (Homo sapiens, UniProt O43293)
T11 construct: purchased Ambit Biosciences Corp (KinomeScan); host or cells: T7 phage in E. coli host derived from BL21
Experimental: as §1, §2

EPHA6 = target: T12, EPHA6 (Homo sapiens, UniProt Q9UF33)
T12 construct: purchased Ambit Biosciences Corp; host or cells: T7 phage in E. coli host derived from BL21
Experimental: as §1, §2

ERK2 = target: T13, ERK2 (Homo sapiens, UniProt P28482)
T13 construct: purchased Ambit Biosciences Corp; host or cells: T7 phage in E. coli host derived from BL21
Experimental: as §1, §2

HPK1 = target: T14, HPK1 (Homo sapiens, UniProt Q92918)
T14 construct: host or cells: T7 phage in E. coli host derived from BL21
Experimental: as §1, §2

IRAK3 = target: T15, IRAK3 (Homo sapiens, UniProt Q9Y616)
T15 construct: host or cells: T7 phage grown in E. coli host derived from BL21
Experimental: as §1, §2

MAP3K4 = target: T16, MAP3K4 (Homo sapiens, UniProt Q9Y6R4)
T16 construct: host or cells: E. coli host derived from the BL21 strain, infected with T7 phage
Experimental: as §1, §2

MAP4K2 = target: T17, MAP4K2 (Homo sapiens, UniProt Q12851)
T17 construct: host or cells: E. coli host derived from the BL21 strain, infected with T7 phage
Experimental: as §1, §2

MARK1 = target: T18, MARK1 (Homo sapiens, UniProt Q9P0L2)
T18 construct: host or cells: E. coli host derived from the BL21 strain, infected with T7 phage
Experimental: as §1, §2

MELK = target: T19, MELK (Homo sapiens, UniProt Q14680)
T19 construct: host or cells: E. coli host derived from the BL21 strain, infected with T7 phage
Experimental: as §1, §2

NEK6 = target: T20, NEK6 (Homo sapiens, UniProt Q9HC98)
T20 construct: host or cells: T7 phage grown in E. coli host derived from BL21
Experimental: as §1, §2

PAK6 = target: T21, PAK6 (Homo sapiens, UniProt Q9NQU5)
T21 construct: host or cells: E. coli host derived from BL21, infected with T7 phage
Experimental: as §1, §2

PDGFRA = target: T22, PDGFRA (Homo sapiens, UniProt P16234)
T22 construct: host or cells: E. coli host derived from BL21, infected with T7 phage
Experimental: as §1, §2

PHKG1 = target: T23, PHKG1 (Homo sapiens, UniProt Q16816)
T23 construct: host or cells: E. coli host derived from BL21, infected with T7 phage
Experimental: as §1, §2

PIK3C2B = target: T24, PIK3C2B (Homo sapiens, UniProt O00750)
T24 construct: host or cells: E. coli host derived from BL21, infected with T7 phage
Experimental: as §1, §2

RET = target: T25, RET (Homo sapiens, UniProt P07949)
T25 construct: host or cells: E. coli host derived from BL21, T7 phage display
Experimental: as §1, §2

RIOK3 = target: T26, RIOK3 (Homo sapiens, UniProt O14730)
T26 construct: host or cells: E. coli host derived from BL21, T7 phage display
Experimental: as §1, §2

[1] = target: T27, RPS6KA5(Kin.Dom.-2-C-terminal) (Homo sapiens, UniProt O75582)
T27 construct: RPS6KA5(Kin.Dom.-2-C-terminal); host or cells: E. coli host derived from BL21, T7 phage display
Experimental: as §1, §2

SLK = target: T28, SLK (Homo sapiens, UniProt Q9H2G2)
T28 construct: host or cells: T7 phage grown in E. coli (BL21-derived)
Experimental: as §1, §2

STK35 = target: T29, STK35 (Homo sapiens, UniProt Q8TDR2)
T29 construct: host or cells: T7 phage grown in E. coli (BL21-derived)
Experimental: as §1, §2

TGFBR1 = target: T30, TGFBR1 (Homo sapiens, UniProt P36897)
T30 construct: host or cells: T7 phage grown in E. coli (BL21-derived)
Experimental: as §1, §2

TIE2 = target: T31, TIE2 (Homo sapiens, UniProt Q02763)
T31 construct: host or cells: E. coli host derived from BL21, T7 phage
Experimental: as §1, §2

TLK1 = target: T32, TLK1 (Homo sapiens, UniProt Q9UKI8)
T32 construct: host or cells: E. coli host derived from BL21, T7 phage
Experimental: as §1, §2

WEE1 = target: T33, WEE1 (Homo sapiens, UniProt P30291)
T33 construct: host or cells: E. coli host derived from BL21, T7 phage
Experimental: as §1, §2

YES = target: T34, YES (Homo sapiens, UniProt P07947)
T34 construct: host or cells: E. coli host derived from BL21, T7 phage
Experimental: as §1, §2

T5 sequence (Q8TDC3 whole entry): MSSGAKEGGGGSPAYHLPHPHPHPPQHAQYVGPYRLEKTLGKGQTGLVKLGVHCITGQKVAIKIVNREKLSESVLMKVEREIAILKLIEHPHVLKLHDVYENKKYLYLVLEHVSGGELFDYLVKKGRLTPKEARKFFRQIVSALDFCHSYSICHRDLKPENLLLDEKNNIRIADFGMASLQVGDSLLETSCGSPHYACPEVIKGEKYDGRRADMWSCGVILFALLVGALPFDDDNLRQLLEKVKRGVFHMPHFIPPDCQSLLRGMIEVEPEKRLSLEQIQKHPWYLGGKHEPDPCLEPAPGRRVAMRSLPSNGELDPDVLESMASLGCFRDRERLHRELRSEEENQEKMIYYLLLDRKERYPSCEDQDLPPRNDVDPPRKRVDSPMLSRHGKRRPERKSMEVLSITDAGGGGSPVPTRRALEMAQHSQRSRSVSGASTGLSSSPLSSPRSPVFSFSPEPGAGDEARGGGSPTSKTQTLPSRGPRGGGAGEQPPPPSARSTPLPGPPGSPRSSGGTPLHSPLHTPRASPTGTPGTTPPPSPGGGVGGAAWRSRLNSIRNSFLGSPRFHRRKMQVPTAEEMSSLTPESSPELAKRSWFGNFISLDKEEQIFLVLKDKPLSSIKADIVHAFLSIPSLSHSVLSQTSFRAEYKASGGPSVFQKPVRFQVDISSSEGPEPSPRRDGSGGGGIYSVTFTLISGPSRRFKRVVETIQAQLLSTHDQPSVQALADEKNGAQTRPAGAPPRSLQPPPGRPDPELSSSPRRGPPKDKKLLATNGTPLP
T26 sequence (O14730 whole entry): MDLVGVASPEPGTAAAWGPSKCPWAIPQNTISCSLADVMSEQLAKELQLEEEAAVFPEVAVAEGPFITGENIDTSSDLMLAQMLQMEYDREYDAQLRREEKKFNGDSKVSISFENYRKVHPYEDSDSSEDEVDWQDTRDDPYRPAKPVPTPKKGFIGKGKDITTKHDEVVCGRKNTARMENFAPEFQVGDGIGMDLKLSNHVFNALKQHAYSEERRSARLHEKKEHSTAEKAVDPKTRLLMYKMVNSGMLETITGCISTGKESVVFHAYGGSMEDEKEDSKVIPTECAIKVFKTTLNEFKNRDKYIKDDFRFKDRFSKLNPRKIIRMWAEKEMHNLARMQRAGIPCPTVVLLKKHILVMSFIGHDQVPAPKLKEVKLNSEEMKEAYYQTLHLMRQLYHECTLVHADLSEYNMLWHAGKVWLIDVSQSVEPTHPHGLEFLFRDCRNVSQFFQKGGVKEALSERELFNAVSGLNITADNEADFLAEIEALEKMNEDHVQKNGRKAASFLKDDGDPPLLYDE
T19 sequence (Q14680 whole entry): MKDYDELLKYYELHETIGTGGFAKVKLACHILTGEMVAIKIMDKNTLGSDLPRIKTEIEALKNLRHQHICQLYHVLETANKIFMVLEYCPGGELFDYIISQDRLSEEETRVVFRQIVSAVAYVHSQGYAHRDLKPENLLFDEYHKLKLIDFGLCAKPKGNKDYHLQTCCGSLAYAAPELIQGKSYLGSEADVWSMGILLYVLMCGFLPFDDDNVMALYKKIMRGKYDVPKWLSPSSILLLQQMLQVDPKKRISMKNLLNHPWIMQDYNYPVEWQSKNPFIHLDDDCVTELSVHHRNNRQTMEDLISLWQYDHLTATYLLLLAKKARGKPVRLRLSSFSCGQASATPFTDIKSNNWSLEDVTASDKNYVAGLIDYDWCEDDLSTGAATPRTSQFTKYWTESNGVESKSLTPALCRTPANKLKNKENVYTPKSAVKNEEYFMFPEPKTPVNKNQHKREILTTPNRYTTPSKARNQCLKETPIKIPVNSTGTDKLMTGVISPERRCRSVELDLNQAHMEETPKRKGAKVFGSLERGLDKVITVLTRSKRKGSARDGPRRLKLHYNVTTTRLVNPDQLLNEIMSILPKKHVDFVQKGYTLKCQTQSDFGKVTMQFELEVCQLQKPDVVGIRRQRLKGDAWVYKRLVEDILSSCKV
T6 sequence (Q13557 whole entry): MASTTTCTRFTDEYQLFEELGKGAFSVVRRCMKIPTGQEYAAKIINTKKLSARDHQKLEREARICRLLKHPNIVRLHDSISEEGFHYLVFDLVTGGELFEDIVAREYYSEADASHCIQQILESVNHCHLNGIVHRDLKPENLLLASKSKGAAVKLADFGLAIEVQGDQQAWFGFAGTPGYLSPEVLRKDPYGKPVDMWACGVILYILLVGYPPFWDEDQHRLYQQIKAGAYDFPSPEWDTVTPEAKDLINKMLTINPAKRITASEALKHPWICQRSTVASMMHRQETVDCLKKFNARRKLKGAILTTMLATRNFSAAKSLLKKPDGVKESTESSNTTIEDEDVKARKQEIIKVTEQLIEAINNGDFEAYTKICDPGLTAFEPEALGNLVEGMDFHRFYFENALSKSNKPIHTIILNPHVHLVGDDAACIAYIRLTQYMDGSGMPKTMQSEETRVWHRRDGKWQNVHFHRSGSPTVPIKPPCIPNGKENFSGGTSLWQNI
T18 sequence (Q9P0L2 whole entry): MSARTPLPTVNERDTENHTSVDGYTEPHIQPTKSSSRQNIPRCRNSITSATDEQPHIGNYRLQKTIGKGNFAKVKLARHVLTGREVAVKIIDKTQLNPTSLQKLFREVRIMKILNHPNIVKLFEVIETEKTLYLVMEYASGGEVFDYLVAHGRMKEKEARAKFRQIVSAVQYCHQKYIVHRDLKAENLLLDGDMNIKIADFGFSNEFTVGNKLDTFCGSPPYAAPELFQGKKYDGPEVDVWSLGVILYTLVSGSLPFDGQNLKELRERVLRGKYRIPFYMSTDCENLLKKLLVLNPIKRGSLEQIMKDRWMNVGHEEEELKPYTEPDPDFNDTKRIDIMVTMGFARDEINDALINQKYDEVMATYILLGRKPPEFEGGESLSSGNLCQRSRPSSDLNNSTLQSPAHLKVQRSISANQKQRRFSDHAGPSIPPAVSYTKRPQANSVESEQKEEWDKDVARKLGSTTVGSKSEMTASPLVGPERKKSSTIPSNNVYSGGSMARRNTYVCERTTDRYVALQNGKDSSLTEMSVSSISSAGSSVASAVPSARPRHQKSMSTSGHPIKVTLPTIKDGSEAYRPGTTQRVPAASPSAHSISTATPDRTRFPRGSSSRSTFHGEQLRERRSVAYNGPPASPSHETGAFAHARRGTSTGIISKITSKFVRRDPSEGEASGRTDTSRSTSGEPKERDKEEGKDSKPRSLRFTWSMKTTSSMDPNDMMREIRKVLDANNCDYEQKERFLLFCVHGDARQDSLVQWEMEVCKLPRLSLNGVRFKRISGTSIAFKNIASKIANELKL
T29 sequence (Q8TDR2 whole entry): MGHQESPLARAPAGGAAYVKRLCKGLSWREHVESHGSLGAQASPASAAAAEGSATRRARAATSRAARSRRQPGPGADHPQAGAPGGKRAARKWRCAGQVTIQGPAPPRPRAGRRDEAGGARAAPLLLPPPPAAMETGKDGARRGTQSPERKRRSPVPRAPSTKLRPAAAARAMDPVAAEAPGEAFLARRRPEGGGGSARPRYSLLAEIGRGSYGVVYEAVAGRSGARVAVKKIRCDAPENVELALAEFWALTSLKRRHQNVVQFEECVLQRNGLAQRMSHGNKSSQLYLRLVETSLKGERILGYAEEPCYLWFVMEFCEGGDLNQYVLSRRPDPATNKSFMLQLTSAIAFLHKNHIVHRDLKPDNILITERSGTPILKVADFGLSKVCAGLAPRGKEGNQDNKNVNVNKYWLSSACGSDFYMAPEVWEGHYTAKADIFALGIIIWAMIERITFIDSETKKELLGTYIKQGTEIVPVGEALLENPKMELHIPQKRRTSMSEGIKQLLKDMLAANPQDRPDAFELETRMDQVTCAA
T2 sequence (P54646 whole entry): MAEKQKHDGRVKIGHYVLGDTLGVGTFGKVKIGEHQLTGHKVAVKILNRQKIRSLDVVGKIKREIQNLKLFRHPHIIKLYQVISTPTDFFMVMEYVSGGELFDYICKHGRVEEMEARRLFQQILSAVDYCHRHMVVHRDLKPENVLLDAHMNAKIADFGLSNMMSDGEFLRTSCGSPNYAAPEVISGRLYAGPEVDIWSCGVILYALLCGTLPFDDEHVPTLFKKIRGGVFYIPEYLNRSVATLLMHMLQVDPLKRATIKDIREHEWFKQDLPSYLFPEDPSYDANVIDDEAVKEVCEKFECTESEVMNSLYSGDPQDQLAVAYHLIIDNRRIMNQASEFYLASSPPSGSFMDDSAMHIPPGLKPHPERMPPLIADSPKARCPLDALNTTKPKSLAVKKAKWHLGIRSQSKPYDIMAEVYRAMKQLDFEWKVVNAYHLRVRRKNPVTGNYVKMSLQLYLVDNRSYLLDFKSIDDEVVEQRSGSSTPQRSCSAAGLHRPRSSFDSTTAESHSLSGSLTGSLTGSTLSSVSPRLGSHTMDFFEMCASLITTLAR
T33 sequence (P30291 whole entry): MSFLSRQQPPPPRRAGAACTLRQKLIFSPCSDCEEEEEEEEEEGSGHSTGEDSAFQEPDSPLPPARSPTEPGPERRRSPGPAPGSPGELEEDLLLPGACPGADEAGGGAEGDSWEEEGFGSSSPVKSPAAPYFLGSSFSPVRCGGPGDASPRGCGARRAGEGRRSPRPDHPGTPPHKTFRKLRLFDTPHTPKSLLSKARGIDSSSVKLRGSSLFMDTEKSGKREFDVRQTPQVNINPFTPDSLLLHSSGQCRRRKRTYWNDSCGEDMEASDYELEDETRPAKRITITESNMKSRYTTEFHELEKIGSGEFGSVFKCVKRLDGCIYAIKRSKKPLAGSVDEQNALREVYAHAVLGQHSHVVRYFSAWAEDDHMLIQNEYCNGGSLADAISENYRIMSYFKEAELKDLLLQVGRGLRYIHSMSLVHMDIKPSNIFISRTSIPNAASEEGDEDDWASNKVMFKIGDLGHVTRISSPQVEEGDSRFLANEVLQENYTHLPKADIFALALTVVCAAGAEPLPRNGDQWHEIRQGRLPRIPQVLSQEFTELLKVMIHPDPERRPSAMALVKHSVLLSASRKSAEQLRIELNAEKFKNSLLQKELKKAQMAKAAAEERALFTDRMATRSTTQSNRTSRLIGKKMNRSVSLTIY

## C#Cc1cccc(Nc2ncnc3cc(OC)c(OCCCN4CCOCC4)cc23)c1 [NRC-2694, N-(3-ethynylphenyl)-7-methoxy-6-[3-(4-morpholinyl)propoxy]-4-quinazolinamine]
ADCK4
  remaining binding at 10 µM: 14%
AMPK-alpha2
  remaining binding at 10 µM: 61%
ARK5
  remaining binding at 10 µM: 29%
ASK1
  remaining binding at 10 µM: 100%
BRSK1
  remaining binding at 10 µM: 53%
CAMK2D
  remaining binding at 10 µM: 35%
CDC2L1
  remaining binding at 10 µM: 42%
CDK11
  remaining binding at 10 µM: 87%
CLK1
  remaining binding at 10 µM: 31%
CSNK1G1
  remaining binding at 10 µM: 55%
DAPK3
  remaining binding at 10 µM: 34%
EPHA6
  remaining binding at 10 µM: 25%
ERK2
  remaining binding at 10 µM: 100%
HPK1
  remaining binding at 10 µM: 47%
IRAK3
  remaining binding at 10 µM: 25%
MAP3K4
  remaining binding at 10 µM: 53%
MAP4K2
  remaining binding at 10 µM: 48%
MARK1
  remaining binding at 10 µM: 56%
MELK
  remaining binding at 10 µM: 57%
NEK6
  remaining binding at 10 µM: 94%
PAK6
  remaining binding at 10 µM: 70%
PDGFRA
  remaining binding at 10 µM: 50%
PHKG1
  remaining binding at 10 µM: 50%
PIK3C2B
  remaining binding at 10 µM: 93%
RET
  remaining binding at 10 µM: 65%
RIOK3
  remaining binding at 10 µM: 37%
[1]
  remaining binding at 10 µM: 57%
SLK
  remaining binding at 10 µM: 0.3%
STK35
  remaining binding at 10 µM: 52%
TGFBR1
  remaining binding at 10 µM: 83%
TIE2
  remaining binding at 10 µM: 76%
TLK1
  remaining binding at 10 µM: 77%
WEE1
  remaining binding at 10 µM: 74%
YES
  remaining binding at 10 µM: 41%

Source: patent US8921362B2, “6,7-dialkoxy quinazoline derivatives and methods of treating drug resistant and other tumors” (Natco Pharma Limited, priority 2008, dated 2014)
